Results reported in PMC7265341, “Quantifying CDK inhibitor selectivity in live cells” (Nature Communications, 2020).
Like-named read-outs stand apart in the source and are kept apart here.

Legend:
[1] = molecular target: CDK10/Cyclin L2 (Homo sapiens, UniProt Q15131); experiment: NanoBRET live-cell target engagement, CDK10-NanoLuc/Cyclin L2 in HEK-293; details: read-out: Inhibition at 10µM (%), CDK10/L2
[2] = molecular target: CDK16/Cyclin Y (Homo sapiens, UniProt Q00536); experiment: NanoBRET live-cell target engagement, CDK16-NanoLuc/Cyclin Y in HEK-293; type: binding; details: CDK16/Y; for IC50: read-out: IC50; for inhibition at 10 µM: read-out: Inhibition at 10µM (%)
CDK16/Cyclin Y, sequence (Q00536 whole entry): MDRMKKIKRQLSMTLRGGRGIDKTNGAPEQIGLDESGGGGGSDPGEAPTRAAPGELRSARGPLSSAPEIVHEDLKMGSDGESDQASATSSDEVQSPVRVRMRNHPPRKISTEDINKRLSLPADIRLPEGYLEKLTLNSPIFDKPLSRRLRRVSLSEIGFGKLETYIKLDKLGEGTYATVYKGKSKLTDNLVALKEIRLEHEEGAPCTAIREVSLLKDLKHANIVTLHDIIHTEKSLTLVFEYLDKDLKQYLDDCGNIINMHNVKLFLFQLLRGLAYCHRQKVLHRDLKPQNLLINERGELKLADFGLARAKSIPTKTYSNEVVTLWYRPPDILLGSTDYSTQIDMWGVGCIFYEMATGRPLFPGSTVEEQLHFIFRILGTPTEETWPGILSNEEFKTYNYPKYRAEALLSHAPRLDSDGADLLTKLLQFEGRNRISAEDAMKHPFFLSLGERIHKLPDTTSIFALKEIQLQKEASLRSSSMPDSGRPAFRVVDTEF
CDK16/Cyclin Y, sequence (Q8ND76 whole entry partner): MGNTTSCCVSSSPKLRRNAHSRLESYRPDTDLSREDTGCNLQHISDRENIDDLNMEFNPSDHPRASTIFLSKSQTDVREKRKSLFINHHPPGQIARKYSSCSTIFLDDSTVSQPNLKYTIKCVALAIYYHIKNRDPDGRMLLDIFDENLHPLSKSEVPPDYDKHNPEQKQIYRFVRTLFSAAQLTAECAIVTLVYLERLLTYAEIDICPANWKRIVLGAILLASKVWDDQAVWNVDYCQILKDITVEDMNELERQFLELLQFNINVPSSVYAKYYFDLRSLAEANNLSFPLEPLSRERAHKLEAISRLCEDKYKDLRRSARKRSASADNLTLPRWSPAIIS

[3] = molecular target: CDK2/Cyclin E1 (Homo sapiens, UniProt P24941); experiment: NanoBRET live-cell target engagement, CDK2-NanoLuc/Cyclin E1 in HEK-293; type: binding; details: read-out: Inhibition at 10µM (%), CDK2/E1
[4] = molecular target: CDK9/Cyclin K (Homo sapiens, UniProt P50750); experiment: NanoBRET live-cell target engagement, NanoLuc-CDK9/Cyclin K in HEK-293; type: binding; details: CDK9/K, read-out: Inhibition at 10µM (%)
CDK9/Cyclin K, sequence (P50750 whole entry): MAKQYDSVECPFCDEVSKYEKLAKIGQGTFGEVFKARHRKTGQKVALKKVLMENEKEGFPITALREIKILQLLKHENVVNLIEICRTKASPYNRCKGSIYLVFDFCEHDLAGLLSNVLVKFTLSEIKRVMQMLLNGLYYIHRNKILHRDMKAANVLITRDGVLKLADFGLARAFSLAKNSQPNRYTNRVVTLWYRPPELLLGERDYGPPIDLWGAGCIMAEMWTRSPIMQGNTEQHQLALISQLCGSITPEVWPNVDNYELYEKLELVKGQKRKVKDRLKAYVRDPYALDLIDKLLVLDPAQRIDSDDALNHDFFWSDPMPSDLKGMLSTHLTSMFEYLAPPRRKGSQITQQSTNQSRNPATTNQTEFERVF
CDK9/Cyclin K, sequence (O75909 whole entry partner): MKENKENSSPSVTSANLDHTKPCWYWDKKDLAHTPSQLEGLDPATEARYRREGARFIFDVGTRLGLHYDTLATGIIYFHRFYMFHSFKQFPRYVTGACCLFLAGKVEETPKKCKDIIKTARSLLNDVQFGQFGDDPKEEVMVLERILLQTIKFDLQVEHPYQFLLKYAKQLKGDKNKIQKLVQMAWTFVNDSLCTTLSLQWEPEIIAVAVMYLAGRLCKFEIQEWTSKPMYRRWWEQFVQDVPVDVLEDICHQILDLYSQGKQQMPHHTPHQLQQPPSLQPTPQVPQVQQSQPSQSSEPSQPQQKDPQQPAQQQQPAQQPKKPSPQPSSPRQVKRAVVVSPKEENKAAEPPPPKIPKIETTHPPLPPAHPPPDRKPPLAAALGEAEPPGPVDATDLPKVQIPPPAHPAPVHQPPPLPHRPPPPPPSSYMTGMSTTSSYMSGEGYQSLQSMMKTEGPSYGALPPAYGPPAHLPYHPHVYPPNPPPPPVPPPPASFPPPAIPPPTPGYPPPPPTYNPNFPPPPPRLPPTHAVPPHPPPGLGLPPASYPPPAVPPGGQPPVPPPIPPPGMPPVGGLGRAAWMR

[5] = molecular target: CDK18/Cyclin Y (Homo sapiens, UniProt Q07002); experiment: NanoBRET live-cell target engagement, CDK18-NanoLuc/Cyclin Y in HEK-293; type: binding; details: CDK18/Y, read-out: Inhibition at 10µM (%)
CDK18/Cyclin Y, sequence (Q07002 whole entry): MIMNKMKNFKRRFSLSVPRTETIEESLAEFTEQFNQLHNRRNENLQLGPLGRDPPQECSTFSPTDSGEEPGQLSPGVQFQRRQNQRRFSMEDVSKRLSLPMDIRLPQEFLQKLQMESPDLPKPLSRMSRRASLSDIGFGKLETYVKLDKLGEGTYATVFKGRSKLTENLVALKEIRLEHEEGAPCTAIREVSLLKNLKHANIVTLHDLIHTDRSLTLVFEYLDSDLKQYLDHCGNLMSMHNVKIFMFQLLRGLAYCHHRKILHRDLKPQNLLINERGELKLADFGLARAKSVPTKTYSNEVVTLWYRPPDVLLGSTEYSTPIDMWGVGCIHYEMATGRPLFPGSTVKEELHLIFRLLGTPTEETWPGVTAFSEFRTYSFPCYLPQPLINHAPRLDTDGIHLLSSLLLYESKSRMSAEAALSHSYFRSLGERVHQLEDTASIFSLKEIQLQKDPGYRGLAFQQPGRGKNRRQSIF
CDK18/Cyclin Y, sequence (Q8ND76 whole entry partner): as the sequence (Q8ND76 whole entry partner) above

[6] = molecular target: CDK15/Cyclin Y (Homo sapiens, UniProt Q96Q40); experiment: NanoBRET live-cell target engagement, NanoLuc-CDK15/Cyclin Y in HEK-293; type: binding; details: CDK15/Y, read-out: Inhibition at 10µM (%)
[7] = molecular target: CDK11B/Cyclin L2 (Homo sapiens, UniProt P21127); experiment: NanoBRET live-cell target engagement, CDK11B-NanoLuc/Cyclin L2 in HEK-293; type: binding; details: CDK11b/L2, read-out: Inhibition at 10µM (%)
CDK11B/Cyclin L2, sequence (P21127 1-782 isoform P21127-2): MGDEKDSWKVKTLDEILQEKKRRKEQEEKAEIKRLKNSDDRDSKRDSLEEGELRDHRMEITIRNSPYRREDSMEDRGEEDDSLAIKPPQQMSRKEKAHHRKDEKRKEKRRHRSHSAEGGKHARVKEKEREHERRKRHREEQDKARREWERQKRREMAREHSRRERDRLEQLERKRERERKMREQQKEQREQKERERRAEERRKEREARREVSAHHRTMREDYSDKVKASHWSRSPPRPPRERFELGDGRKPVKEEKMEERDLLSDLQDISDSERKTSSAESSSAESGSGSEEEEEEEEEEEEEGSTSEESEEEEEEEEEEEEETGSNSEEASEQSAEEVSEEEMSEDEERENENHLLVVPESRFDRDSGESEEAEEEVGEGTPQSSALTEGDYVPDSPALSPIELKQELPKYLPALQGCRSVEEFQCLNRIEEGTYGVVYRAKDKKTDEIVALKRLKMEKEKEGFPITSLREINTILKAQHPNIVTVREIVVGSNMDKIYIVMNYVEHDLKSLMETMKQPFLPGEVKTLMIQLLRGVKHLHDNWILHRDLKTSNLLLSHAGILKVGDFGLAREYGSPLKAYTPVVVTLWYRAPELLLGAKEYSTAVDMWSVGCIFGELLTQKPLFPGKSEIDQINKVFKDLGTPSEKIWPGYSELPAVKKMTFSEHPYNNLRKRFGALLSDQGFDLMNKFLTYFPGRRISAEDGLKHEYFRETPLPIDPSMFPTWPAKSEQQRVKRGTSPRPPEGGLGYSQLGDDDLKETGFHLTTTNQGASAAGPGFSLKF

[8] = molecular target: CDK5/CDK5R1 (Homo sapiens, UniProt Q00535); experiment: NanoBRET live-cell target engagement, CDK5-NanoLuc/CDK5R1 in HEK-293; type: binding; details: CDK5/CDK5R1, read-out: Inhibition at 10µM (%)
[9] = molecular target: CDK6/Cyclin D1 (Homo sapiens, UniProt Q00534); experiment: NanoBRET live-cell target engagement, NanoLuc-CDK6/Cyclin D1 in HEK-293; type: binding; details: CDK6/D1; for IC50: read-out: IC50; for inhibition at 10 µM: read-out: Inhibition at 10µM (%)
[10] = molecular target: CDK14/Cyclin Y (Homo sapiens, UniProt O94921); experiment: NanoBRET live-cell target engagement, CDK14-NanoLuc/Cyclin Y in HEK-293; type: binding; details: CDK14/Y, read-out: Inhibition at 10µM (%)
CDK14/Cyclin Y, sequence (O94921 whole entry): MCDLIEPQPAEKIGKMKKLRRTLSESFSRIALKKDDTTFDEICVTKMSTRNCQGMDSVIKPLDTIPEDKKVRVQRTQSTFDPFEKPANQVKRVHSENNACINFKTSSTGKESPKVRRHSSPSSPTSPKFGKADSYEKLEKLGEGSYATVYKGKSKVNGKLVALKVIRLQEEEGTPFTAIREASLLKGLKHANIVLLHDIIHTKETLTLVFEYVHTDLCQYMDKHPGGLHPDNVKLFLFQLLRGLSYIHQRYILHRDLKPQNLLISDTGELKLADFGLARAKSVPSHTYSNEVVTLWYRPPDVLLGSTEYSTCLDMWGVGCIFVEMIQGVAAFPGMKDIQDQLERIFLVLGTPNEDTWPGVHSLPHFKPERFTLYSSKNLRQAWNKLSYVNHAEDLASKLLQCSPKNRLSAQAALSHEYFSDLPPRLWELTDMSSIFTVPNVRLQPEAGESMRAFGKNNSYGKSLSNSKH
CDK14/Cyclin Y, sequence (Q8ND76 whole entry partner): as the sequence (Q8ND76 whole entry partner) above

[11] = molecular target: CDK19/Cyclin C (Homo sapiens, UniProt Q9BWU1); experiment: NanoBRET live-cell target engagement, NanoLuc-CDK19/Cyclin C in HEK-293; details: read-out: Inhibition at 10µM (%), CDK19/C
[12] = molecular target: CDK7 (Homo sapiens, UniProt P50613); experiment: NanoBRET live-cell target engagement, NanoLuc-CDK7 in HEK-293; type: binding; details: CDK7; for IC50: read-out: IC50; for inhibition at 10 µM: read-out: Inhibition at 10µM (%)
[13] = molecular target: CDK8/Cyclin C (Homo sapiens, UniProt P49336); experiment: NanoBRET live-cell target engagement, NanoLuc-CDK8/Cyclin C in HEK-293; type: binding; details: CDK8/C, read-out: Inhibition at 10µM (%)
[14] = molecular target: CDK3/Cyclin E1 (Homo sapiens, UniProt Q00526); experiment: NanoBRET live-cell target engagement, CDK3-NanoLuc/Cyclin E1 in HEK-293; type: binding; details: CDK3/E1, read-out: Inhibition at 10µM (%)
[15] = molecular target: CDK4/Cyclin D1 (Homo sapiens, UniProt P11802); experiment: NanoBRET live-cell target engagement, NanoLuc-CDK4/Cyclin D1 in HEK-293; type: binding; details: CDK4/D1; for IC50: read-out: IC50; for inhibition at 10 µM: read-out: Inhibition at 10µM (%)
CDK4/Cyclin D1, sequence (P11802 whole entry): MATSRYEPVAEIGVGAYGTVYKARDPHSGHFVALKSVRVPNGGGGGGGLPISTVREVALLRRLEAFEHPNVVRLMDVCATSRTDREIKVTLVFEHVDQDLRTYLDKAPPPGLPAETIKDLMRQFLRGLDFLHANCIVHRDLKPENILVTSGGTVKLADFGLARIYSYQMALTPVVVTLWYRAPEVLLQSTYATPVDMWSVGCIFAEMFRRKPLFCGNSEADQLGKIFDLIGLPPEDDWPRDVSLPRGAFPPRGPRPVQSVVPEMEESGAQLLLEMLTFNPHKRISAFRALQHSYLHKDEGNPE
CDK4/Cyclin D1, sequence (P24385 whole entry partner): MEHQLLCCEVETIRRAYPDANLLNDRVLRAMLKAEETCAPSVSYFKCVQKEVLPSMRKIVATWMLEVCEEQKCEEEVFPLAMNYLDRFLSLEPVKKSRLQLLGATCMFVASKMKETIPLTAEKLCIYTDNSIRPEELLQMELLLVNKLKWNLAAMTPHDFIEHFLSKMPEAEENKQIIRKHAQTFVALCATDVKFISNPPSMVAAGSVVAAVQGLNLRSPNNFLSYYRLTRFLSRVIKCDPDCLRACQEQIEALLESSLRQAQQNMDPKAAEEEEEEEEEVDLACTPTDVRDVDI

[16] = molecular target: CDK20/Cyclin H (Homo sapiens, UniProt Q8IZL9); experiment: NanoBRET live-cell target engagement, NanoLuc-CDK20/Cyclin H in HEK-293; type: binding; details: CDK20/H, read-out: Inhibition at 10µM (%)
[17] = molecular target: CDK17/Cyclin Y (Homo sapiens, UniProt Q00537); experiment: NanoBRET live-cell target engagement, CDK17-NanoLuc/Cyclin Y in HEK-293; type: binding; details: CDK17/Y, read-out: Inhibition at 10µM (%)
[18] = molecular target: CDK1/Cyclin E1 (Homo sapiens, UniProt P06493); experiment: NanoBRET live-cell target engagement, CDK1-NanoLuc/Cyclin E1 in HEK-293; type: binding; details: CDK1/E1, read-out: Inhibition at 10µM (%)
CDK1/Cyclin E1, sequence (P06493 whole entry): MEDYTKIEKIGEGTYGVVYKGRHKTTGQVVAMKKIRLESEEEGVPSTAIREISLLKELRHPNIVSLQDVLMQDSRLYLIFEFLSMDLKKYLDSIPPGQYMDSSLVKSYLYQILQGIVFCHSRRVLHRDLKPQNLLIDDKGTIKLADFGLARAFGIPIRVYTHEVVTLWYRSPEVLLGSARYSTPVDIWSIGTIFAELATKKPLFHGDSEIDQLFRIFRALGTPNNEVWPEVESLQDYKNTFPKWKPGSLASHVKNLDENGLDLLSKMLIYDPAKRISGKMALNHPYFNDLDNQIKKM
CDK1/Cyclin E1, sequence (P24864 whole entry partner): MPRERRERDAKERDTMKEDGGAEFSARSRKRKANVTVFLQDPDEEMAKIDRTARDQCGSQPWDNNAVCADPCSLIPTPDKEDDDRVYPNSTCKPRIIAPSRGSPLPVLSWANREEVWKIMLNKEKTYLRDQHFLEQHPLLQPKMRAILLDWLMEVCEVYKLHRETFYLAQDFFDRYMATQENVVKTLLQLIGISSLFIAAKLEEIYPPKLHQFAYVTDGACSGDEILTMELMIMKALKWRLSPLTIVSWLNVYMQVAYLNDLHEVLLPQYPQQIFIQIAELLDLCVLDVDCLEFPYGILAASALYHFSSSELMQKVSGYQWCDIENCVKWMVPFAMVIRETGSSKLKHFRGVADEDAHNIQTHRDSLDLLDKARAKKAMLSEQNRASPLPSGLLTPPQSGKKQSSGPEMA

[19] = molecular target: T1, CDK11A/Cyclin L2 (Homo sapiens, UniProt Q9UQ88); experiment: NanoBRET live-cell target engagement, CDK11A-NanoLuc/Cyclin L2 in HEK-293; type: binding; details: CDK11a/L2, read-out: Inhibition at 10µM (%)
T1 sequence (Q9UQ88 1-783): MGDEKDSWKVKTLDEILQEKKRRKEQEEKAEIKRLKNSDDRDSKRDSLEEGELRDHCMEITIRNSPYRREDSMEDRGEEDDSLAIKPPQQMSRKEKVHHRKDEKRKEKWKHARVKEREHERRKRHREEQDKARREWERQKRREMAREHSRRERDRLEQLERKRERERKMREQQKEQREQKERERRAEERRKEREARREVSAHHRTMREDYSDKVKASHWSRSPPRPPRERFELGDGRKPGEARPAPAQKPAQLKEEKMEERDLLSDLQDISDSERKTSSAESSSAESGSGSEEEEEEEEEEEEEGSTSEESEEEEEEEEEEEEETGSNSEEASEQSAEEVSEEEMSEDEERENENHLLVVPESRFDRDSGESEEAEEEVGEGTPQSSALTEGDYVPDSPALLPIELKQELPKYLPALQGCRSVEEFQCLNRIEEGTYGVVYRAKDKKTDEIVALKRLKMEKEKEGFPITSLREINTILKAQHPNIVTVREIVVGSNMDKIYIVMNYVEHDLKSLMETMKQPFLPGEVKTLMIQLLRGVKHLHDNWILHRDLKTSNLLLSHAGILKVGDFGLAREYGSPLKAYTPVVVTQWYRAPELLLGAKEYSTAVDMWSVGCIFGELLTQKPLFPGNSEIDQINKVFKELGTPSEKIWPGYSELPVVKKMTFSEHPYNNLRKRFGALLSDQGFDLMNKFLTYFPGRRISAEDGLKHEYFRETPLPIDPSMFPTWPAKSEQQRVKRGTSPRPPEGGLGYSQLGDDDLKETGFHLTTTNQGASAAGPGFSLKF

## N#CCNC(=O)c1ccc(-c2ccnc(Nc3ccc(N4CCOCC4)cc3)n2)cc1 [Momelotinib]
[1]; average
  inhibition at 10 µM: 16.4%
[1]; experiment 1
  inhibition at 10 µM: 15.4%
[1]; experiment 2
  inhibition at 10 µM: 17.3%
[2]; average (± SEM where n=3)
  IC50: 450 nM
[2]; experiment 1
  IC50: 177 nM
  inhibition at 10 µM: 31.8%
[2]; experiment 2
  IC50: 730 nM
  inhibition at 10 µM: 64.3%
[3]; average
  inhibition at 10 µM: 17.7%
[3]; experiment 1
  inhibition at 10 µM: 12.1%
[3]; experiment 2
  inhibition at 10 µM: 23.4%
[4]; average
  inhibition at 10 µM: 29.7%
[4]; experiment 1
  inhibition at 10 µM: 29.8%
[4]; experiment 2
  inhibition at 10 µM: 29.7%
[5]; average
  inhibition at 10 µM: 18.4%
[5]; experiment 1
  inhibition at 10 µM: 14.9%
[5]; experiment 2
  inhibition at 10 µM: 21.8%
[6]; average
  inhibition at 10 µM: 8.1%
[6]; experiment 1
  inhibition at 10 µM: 12.2%
[6]; experiment 2
  inhibition at 10 µM: 4%
[7]; average
  inhibition at 10 µM: 52.5%
[7]; experiment 1
  inhibition at 10 µM: 32.8%
[7]; experiment 2
  inhibition at 10 µM: 72.2%
[8]; experiment 1
  inhibition at 10 µM: 7.6%
[8]; experiment 2
  inhibition at 10 µM: 10%
[9]; average (± SEM where n=3)
  IC50: 320 nM
[9]; average
  inhibition at 10 µM: 50.9%
[9]; experiment 1
  IC50: 318 nM
  inhibition at 10 µM: 50.7%
[9]; experiment 2
  IC50: 314 nM
  inhibition at 10 µM: 51.1%
[10]; average
  inhibition at 10 µM: 16.5%
[10]; experiment 1
  inhibition at 10 µM: 15.4%
[10]; experiment 2
  inhibition at 10 µM: 17.7%
[11]; average
  inhibition at 10 µM: 6.1%
[11]; experiment 1
  inhibition at 10 µM: 10.6%
[11]; experiment 2
  inhibition at 10 µM: 1.6%
[12]; average (± SEM where n=3)
  IC50: 820 nM
[12]; average
  inhibition at 10 µM: 50.4%
[12]; experiment 1
  IC50: 760 nM
  inhibition at 10 µM: 28.7%
[12]; experiment 2
  IC50: 880 nM
  inhibition at 10 µM: 72.1%
[13]; average
  inhibition at 10 µM: 2.5%
[13]; experiment 1
  inhibition at 10 µM: 15.9%
[13]; experiment 2
  inhibition at 10 µM: -10.8%
[14]; average
  inhibition at 10 µM: 28.6%
[14]; experiment 1
  inhibition at 10 µM: 27.5%
[14]; experiment 2
  inhibition at 10 µM: 29.8%
[15]; average (± SEM where n=3)
  IC50: 650 nM
[15]; average
  inhibition at 10 µM: 45.1%
[15]; experiment 1
  IC50: 561 nM
  inhibition at 10 µM: 53.4%
[15]; experiment 2
  IC50: 746 nM
  inhibition at 10 µM: 36.9%
[16]; experiment 1
  inhibition at 10 µM: 10.6%
[16]; experiment 2
  inhibition at 10 µM: -4.4%
[17]; average
  inhibition at 10 µM: 43.1%
[17]; experiment 1
  inhibition at 10 µM: 26.9%
[17]; experiment 2
  inhibition at 10 µM: 59.3%
[18]; average
  inhibition at 10 µM: 20%
[18]; experiment 1
  inhibition at 10 µM: 32.3%
[18]; experiment 2
  inhibition at 10 µM: 7.8%
[19]; average
  inhibition at 10 µM: 26.4%
[19]; experiment 1
  inhibition at 10 µM: 31.7%
[19]; experiment 2
  inhibition at 10 µM: 21.1%
